Source: the supplement of paper PMC10307832

Assays:
Experiment in all cases: relative viability (nuclei count vs DMSO), 5 days (fraction); higher = more cells survive
[1] = compound: CC(C)N(CCCNC(=O)Nc1ccc(C(C)(C)C)cc1)C[C@H]1O[C@@H](n2ccc3c(N)ncnc32)[C@H](O)[C@@H]1O + Cc1nc(Nc2ncc(C(=O)Nc3c(C)cccc3Cl)s2)cc(N2CCN(CCO)CC2)n1 [Dasatinib] (partner 0.075 µM)
Summary of the method: (§1)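 Relative viability was taken as the ratio of nuclei in treated wells to nuclei in vehicle wells. Lung cancer cell lines in 1536-well plates received compounds by pin tool one day after seeding, either one drug alone or a fixed anchor-drug dose plus five library-drug doses (not always all listed) in √10 steps. Nuclei were counted on 4× images after 5 days of treatment, and values are medians of duplicate plates.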

Shikonin + Decitabine = compound: CC(C)=CC[C@@H](O)C1=CC(=O)c2c(O)ccc(O)c2C1=O [Shikonin] + Nc1ncn([C@H]2C[C@H](O)[C@@H](CO)O2)c(=O)n1 [Decitabine] (partner 2 µM)
Summary of the method: as §1

[2] = compound: CC(C)N(CCCNC(=O)Nc1ccc(C(C)(C)C)cc1)C[C@H]1O[C@@H](n2ccc3c(N)ncnc32)[C@H](O)[C@@H]1O + CCNC(=O)c1noc(-c2cc(C(C)C)c(O)cc2O)c1-c1ccc(CN2CCOCC2)cc1 [Luminespib] (partner 0.01 µM)
Summary of the method: as §1

Shikonin + Bortezomib = compound: CC(C)=CC[C@@H](O)C1=CC(=O)c2c(O)ccc(O)c2C1=O [Shikonin] + CC(C)C[C@H](NC(=O)[C@H](Cc1ccccc1)NC(=O)c1cnccn1)B(O)O [Bortezomib] (partner 0.002 µM)
Summary of the method: as §1

Cell Line	relative viability ([1]; first compound 0.08 µM)	relative viability ([1]; first compound 0.253 µM)	relative viability ([1]; first compound 0.8 µM)	relative viability ([1]; first compound 2.53 µM)	relative viability ([1]; first compound 8 µM)	relative viability (Shikonin + Decitabine; first compound 0.01 µM)	relative viability (Shikonin + Decitabine; first compound 0.1 µM)	relative viability (Shikonin + Decitabine; first compound 0.3162 µM)	relative viability (Shikonin + Decitabine; first compound 1 µM)	relative viability ([2]; first compound 0.08 µM)	relative viability ([2]; first compound 0.253 µM)	relative viability ([2]; first compound 0.8 µM)	relative viability ([2]; first compound 2.53 µM)	relative viability ([2]; first compound 8 µM)	relative viability (Shikonin + Bortezomib; first compound 0.01 µM)	relative viability (Shikonin + Bortezomib; first compound 0.1 µM)	relative viability (Shikonin + Bortezomib; first compound 0.3162 µM)	relative viability (Shikonin + Bortezomib; first compound 1 µM)
NCI-H460	0.41	0.531	0.453	0.504	0.456	0.446	0.685	0.504	0.516	0.0341	0.0252	0.0359	0.0291	0.0376	1.35	0.78	1.03	1.3
NCI-H520	0.186	0.145	0.151	0.293	0.229	0.47	0.598	0.454	0.401	0.22	0.219	0.239	0.221	0.232		0.699	0.48	0.689
NCI-H596	0.603		0.528	0.561	0.619	1.08	1.03	0.981	1.25	1.06		0.923	0.955	1.12	1.06	1.01	0.948	1.29
NCI-H647	0.183	0.15		0.205	0.212	0.364	0.504	0.346	0.328	0.267	0.461		0.241	0.245	1.06	0.829	1.05	1.03
NCI-H650	0.416	0.425	0.468	0.434	0.438	0.295	0.314	0.334	0.27	0.665	0.803	0.666	0.757	0.774	0.83		0.77	0.98
NCI-H661	0.875	0.787	0.892	0.885	0.821	0.51	0.552	0.572	0.529	0.936	0.966	0.947	0.975	0.957	0.835	0.818	0.734	0.769
NCI-H727	0.381	0.427	0.345	0.393	0.333	0.893	1.02	0.927	0.883	0.372	0.453	0.445	0.232	0.471	0.862	0.933	0.973	0.755
NCI-H838	0.268	0.262	0.279	0.263	0.31	0.476	0.413	0.442	0.468	0.366	0.273	0.307	0.331	0.286	0.992	0.727	0.842	0.685
NCI-H1355	0.71	0.548	0.379	0.698	0.668	0.339	0.4	0.38	0.337	0.763	0.614	0.679	0.609	0.665	1.24	1.25	1.22	1.23
